The target of one assay is T1, human PRMT1 (Homo sapiens, UniProt Q99873).
T1 construct: GST-tagged PRMT1; made in house; host or cells: High Five insect cells (baculovirus)
The assay is described as follows: PRMT1 Biochemical Assay (3H-SAM Flashplate, peptide substrate). Conditions: single experiment or average of multiple experiments. Summed up: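 GST-tagged PRMT1 from baculovirus-infected cells, preincubated with compounds 30 min at room temperature in 20 mM Bicine pH 7.6, 1 mM TCEP, 0.005% BSG, 0.002% Tween 20. Reaction started with ³H-SAM plus biotinylated peptide, stopped with 300 µM cold SAM.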

The target in the next assay is human PRMT8 (Homo sapiens, UniProt Q9NR22). The experiment in a line: PRMT8 Biochemical Assay (3H-SAM Flashplate, peptide substrate). Conditions: single experiment or average of multiple experiments. In short, it runs like this: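 Methylation of a biotin-tagged histone H4 peptide (residues 31-45) by recombinant PRMT8 was measured as 3H transfer from 3H-SAM, after a 30 min room-temperature compound preincubation in Bicine buffer pH 7.6. Reactions were quenched with unlabelled SAM to 400 uM final, then bound counts were read by streptavidin Flashplate. IC50 came from a Hill fit of % inhibition relative to max and SAH min controls.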
Sequence of human PRMT8 (Q9NR22 whole entry, the tested form may be a part): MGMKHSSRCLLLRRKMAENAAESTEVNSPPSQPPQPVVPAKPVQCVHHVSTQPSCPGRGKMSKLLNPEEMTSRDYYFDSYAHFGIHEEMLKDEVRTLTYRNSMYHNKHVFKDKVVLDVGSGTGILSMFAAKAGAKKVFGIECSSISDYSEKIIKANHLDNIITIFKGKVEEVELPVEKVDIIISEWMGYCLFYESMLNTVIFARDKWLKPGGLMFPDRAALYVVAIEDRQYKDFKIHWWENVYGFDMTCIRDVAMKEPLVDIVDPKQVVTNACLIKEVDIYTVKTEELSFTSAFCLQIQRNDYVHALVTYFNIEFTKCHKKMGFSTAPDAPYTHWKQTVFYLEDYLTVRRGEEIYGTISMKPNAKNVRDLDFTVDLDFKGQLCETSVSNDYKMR

Each structure is given as a SMILES string.

T1 sequence (Q99873 with tags, fused parts or gaps): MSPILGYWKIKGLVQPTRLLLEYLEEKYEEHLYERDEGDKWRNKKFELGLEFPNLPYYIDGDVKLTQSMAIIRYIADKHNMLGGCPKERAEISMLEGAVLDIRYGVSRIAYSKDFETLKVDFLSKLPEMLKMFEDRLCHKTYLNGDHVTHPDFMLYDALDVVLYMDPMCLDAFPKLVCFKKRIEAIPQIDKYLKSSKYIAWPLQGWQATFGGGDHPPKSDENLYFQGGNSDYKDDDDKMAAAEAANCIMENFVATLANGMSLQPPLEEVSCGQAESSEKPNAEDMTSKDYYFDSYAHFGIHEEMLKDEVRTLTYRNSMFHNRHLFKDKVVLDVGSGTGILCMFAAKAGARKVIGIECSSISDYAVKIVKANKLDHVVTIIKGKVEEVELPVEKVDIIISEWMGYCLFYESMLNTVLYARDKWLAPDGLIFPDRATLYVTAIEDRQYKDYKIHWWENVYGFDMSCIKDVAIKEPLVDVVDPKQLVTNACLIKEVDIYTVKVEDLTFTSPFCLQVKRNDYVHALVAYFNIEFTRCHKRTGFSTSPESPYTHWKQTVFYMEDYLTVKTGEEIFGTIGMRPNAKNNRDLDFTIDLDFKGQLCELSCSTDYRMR

A word on the IC50: it is the concentration that gives 50% inhibition. Lower therefore signals higher potency. For `CNCCN(C)Cc1c[nH]nc1-c1ccc(C(F)(F)F)cc1` [Compound 174], the values for the IC50 on human PRMT1 and at human PRMT8 were 11.9 nM and 228 nM, respectively. The corresponding values for `COc1ccc(-c2n[nH]cc2CN(C)CCN)c(C)c1` [Compound 155] are 59.9 nM and 977 nM. Regarding `CCn1cc(CN(C)CCNC)c(-c2ccc(OC(C)C)cc2)n1` [Compound 213], the IC50 against human PRMT1 was determined as 26.6 nM. On to `Cc1cc(F)ccc1-c1n[nH]cc1CN(C)CCN` [Compound 152], for which the figures for the IC50 against human PRMT1 and at human PRMT8 were 47.2 nM and 983 nM, respectively. The corresponding values for `CC(C)CN1C(=O)COc2cc(-c3n[nH]cc3CN(C)CCN)ccc21` [Compound 193] are 63.4 nM and 845 nM. Turning to `CNCCN(C)Cc1cnn(C(C)C)c1-c1ccc(F)cc1` [Compound 16], the IC50 at human PRMT1 was found to be 2070 nM.

For `CC(C)Oc1cccc(-c2n[nH]cc2CN(C)CCN)c1` [Compound 187], the figures for the IC50 against human PRMT1 and against human PRMT8 were 146 nM and 1700 nM, respectively. `CN(CCN)Cc1c[nH]nc1-c1ccc(Oc2ccc(F)cc2)cc1` [Compound 225, N^1-((3-(4-(4-fluorophenoxy)phenyl)-1H-pyrazol-4-yl)methyl)-N^1-methylethane-1,2-diamine]: the IC50 at human PRMT1 was 3.19 nM; on human PRMT8, 35.8 nM. For `COCCOc1ccc(-c2n[nH]cc2CN(C)CCN)cc1` [Compound 167] the same measures were 9.28 nM and 284 nM.

For the molecule `CCOC(=O)c1cccc(-c2n[nH]cc2CN(C)CCN)c1` [Compound 150], the IC50 was found to be 71.5 nM on human PRMT1 and 566 nM at human PRMT8. For `CN(CCN(C)C1CC1)Cc1c[nH]nc1-c1ccc(C#N)cc1` [Compound 184] the same measures were 1600 nM and 3030 nM.

For `CN(CCN)Cc1c[nH]nc1-c1cccc(N(C)C)c1` [Compound 149], the figures for the IC50 on human PRMT1 and against human PRMT8 were 61 nM and 910 nM, respectively. On to `CC(C)Oc1ccc(-c2nn(C)cc2CN(C)CCN)cc1` [Compound 176], for which the IC50 on human PRMT1 turned out to be 11.6 nM. Same read-out and setting: for `CN(CCN)Cc1c[nH]nc1-c1ccc(OC2CCOCC2)cc1` [Compound 178] the value was 8.28 nM. Regarding `CC(C)Oc1cc(-c2n[nH]cc2CN(C)CCN)ccc1F` [Compound 188], the IC50 is 163 nM on human PRMT1 and 2890 nM on human PRMT8. Take `CN(CCN)Cc1c[nH]nc1-c1ccc(Oc2cccc(F)c2)cc1` [Compound 205]: the IC50 on human PRMT1 came out at 2.44 nM; at human PRMT8, 286 nM. As for `CCN(C)C(=O)c1cccc(-c2n[nH]cc2CN(C)CCN)c1` [Compound 198], the midpoint of inhibition at human PRMT1, the IC50, lay at 2170 nM. This lies in the single-digit micromolar range. As to `CNCCN(C)Cc1cnn(C2CCOC2)c1-c1ccc(OC(C)C)cc1` (stereo not drawn) [Compound 216], the IC50 against human PRMT1 came to 21.1 nM. Against the preceding molecule, the IC50 is about 100-fold lower. Take `CCC(=O)N1CCN(c2ccc(-c3n[nH]cc3CN(C)CCN)cc2)CC1` [Compound 189]: the 50% inhibitory concentration (IC50) on human PRMT1 amounted to 475 nM; against human PRMT8 it was 2990 nM.

Consider `CN(CCN)Cc1c[nH]nc1-c1cc(Cl)ccc1F` [Compound 156], for which the IC50 at human PRMT1 is 243 nM; against human PRMT8, 1710 nM. The corresponding values for `CNCCN(C)Cc1cn[nH]c1-c1cc(F)cc(F)c1` [Compound 18] are 36.2 nM and 483 nM. As to `CN(CCN)Cc1c[nH]nc1-c1ccc(Oc2ccccc2)c(C#N)c1` [Compound 202], the IC50 against human PRMT1 was found to be 4.27 nM; against human PRMT8 it was 187 nM. As to `COc1ccc(-c2n[nH]cc2CN(C)CCN)cc1` [Compound 153], the IC50 on human PRMT1 came to 21.8 nM; against human PRMT8, 132 nM.

Turning to `CC(C)Oc1ccc(-c2c(CN(C)CCN)cnn2C)cc1` [Compound 177], the IC50 at human PRMT1 is 10 nM.

Regarding `CNCCN(C)Cc1n[nH]cc1-c1ccc(OC(C)C)c(F)c1` [Compound 210], the results for the IC50 at human PRMT1 and on human PRMT8 were 8.79 nM and 182 nM, respectively. Consider `CNCCN(C)Cc1c[nH]nc1-c1ccc(Oc2ccccc2)c(C#N)c1` [Compound 221], for which the IC50 on human PRMT1 came out at 6.47 nM; against human PRMT8 it was 328 nM.

Take `CN(CCN)Cc1c(-c2ccc(C#N)cc2)ncn1C` [Compound 222]: the IC50 against human PRMT1 stood at 1260 nM; at human PRMT8, 8880 nM.

For `CNCCN(C)Cc1cnn(C2CC2)c1-c1ccc(F)cc1` [Compound 14], the IC50 on human PRMT1 is 123 nM; against human PRMT8, 1380 nM. The corresponding values for `CN(CCN)Cc1c[nH]nc1-c1ccc(Oc2ccccc2)c(F)c1` [Compound 224, N^1-((3-(3-fluoro-4-phenoxyphenyl)-1H-pyrazol-4-yl)methyl)-N^1-methylethane-1,2-diamine] are 2.51 nM and 346 nM. The corresponding values for `CC(C)Oc1ccc(-c2c[nH]nc2CN(C)CCN)cc1Cl` [Compound 211] are 6.08 nM and 117 nM. For `CN(CCN)Cc1c[nH]nc1-c1ccc(C(F)(F)F)cc1F` [Compound 148] the same measures were 121 nM and 809 nM. Take `Cc1[nH]nc(-c2ccc(F)cc2)c1CN(C)CCN` [Compound 169]: the results for the IC50 on human PRMT1 and against human PRMT8 were 307 nM and 2990 nM, respectively.

For `COc1ccc(Cl)cc1-c1n[nH]cc1CN(C)CCN` [Compound 157], the results for the IC50 on human PRMT1 and at human PRMT8 were 1540 nM and 5820 nM, respectively.

On to `CN(CCN)Cc1n[nH]cc1-c1ccc(Oc2ccccc2)cc1` [Compound 203], for which the concentration for half-maximal inhibition (IC50) at human PRMT1 is 4.28 nM; at human PRMT8, 185 nM. On to `CNCCN(C)Cc1n[nH]cc1-c1ccc(Oc2ccccc2)cc1` [Compound 204], for which the results for the IC50 against human PRMT1 and at human PRMT8 were 3.15 nM and 69.3 nM, respectively. On to `CN(CCN)Cc1c[nH]nc1-c1ccc2c(c1)OCC(=O)N2C` [Compound 192], for which the IC50 against human PRMT1 was found to be 121 nM; at human PRMT8, 2010 nM. The corresponding values for `CNCCN(C)Cc1cn[nH]c1-c1ccc(C#N)cc1` [Compound 17] are 13.8 nM and 89.1 nM. In turn, `CNCCN(C)Cc1cn(C2CC2)nc1-c1ccc(F)cc1` [Compound 13] had an IC50 at human PRMT1 of 1500 nM. With `CN(CCN)Cc1n[nH]cc1-c1ccc(C2CCOCC2)cc1` [Compound 145], the IC50 on human PRMT1 came to 20.1 nM; against human PRMT8 it was 167 nM. For `Cc1ccc(F)cc1-c1n[nH]cc1CN(C)CCN` [Compound 159] the same measures were 71.9 nM and 879 nM. For `CN(CCN)Cc1c[nH]nc1-c1ccc(OCCN2CCOCC2)cc1` [Compound 172] the same measures were 227 nM and 3260 nM. On to `CNCCN(C)Cc1cn(Cc2ccccc2)nc1-c1ccc(OC(C)C)cc1` [Compound 217], for which, at human PRMT1, the IC50 was found to be 18.7 nM. Regarding `CN(CCN)Cc1c[nH]nc1-c1ccc2c(c1)NC(=O)CO2` [Compound 173], the results for the IC50 against human PRMT1 and at human PRMT8 were 167 nM and 3080 nM, respectively. For `CCOc1ccc(-c2n[nH]cc2CN(C)CCN)cc1` [Compound 166] the same measures were 7.27 nM and 191 nM. The corresponding values for `CNCCN(C)Cc1c[nH]nc1-c1ccc(Cl)c(F)c1` [Compound 182] are 4.75 nM and 271 nM. As for `C=CCn1cc(CN(C)CCNC)c(-c2ccc(OC(C)C)cc2)n1` [Compound 218], the midpoint of inhibition against human PRMT1, the IC50, lay at 58.4 nM.

Consider `Cc1ccc(-c2n[nH]cc2CN(C)CCN)cc1` [Compound 162], for which the IC50 against human PRMT1 worked out at 17 nM; against human PRMT8, 273 nM.

Turning to `CNCCN(C)Cc1c[nH]nc1-c1ccc(OCCCOC)c(Cl)c1` [Compound 228], the concentration for half-maximal inhibition (IC50) on human PRMT1 was found to be 5.55 nM; against human PRMT8, 316 nM. For `CN(CCN)Cc1c[nH]nc1-c1ccc2c(c1)N(C)C(=O)CO2` [Compound 196] the same measures were 210 nM and 2580 nM. `Cc1ccc(C#N)cc1-c1n[nH]cc1CN(C)CCN` [Compound 158] yielded an IC50 against human PRMT1 of 2330 nM. On the same count and under the same terms, for `CNCCN(C)Cc1c[nH]nc1-c1ccc(OC(C)C)c(F)c1` [Compound 181] the value was 4.96 nM. With `Cc1ccccc1-c1n[nH]cc1CN(C)CCN` [Compound 161], the IC50 at human PRMT1 worked out at 187 nM; against human PRMT8, 2100 nM. Turning to `CCN(C)C(=O)c1ccc(-c2n[nH]cc2CN(C)CCN)cc1` [Compound 163], the results for the half-maximal inhibitory concentration (IC50) against human PRMT1 and on human PRMT8 were 115 nM and 1430 nM, respectively. In turn, `CNCCN(C)Cc1cn(C2CCCC2)nc1-c1ccc(OC(C)C)cc1` [Compound 214] displayed an IC50 against human PRMT1 of 51.9 nM.

With `C=CCn1ncc(CN(C)CCNC)c1-c1ccc(OC(C)C)cc1` [Compound 219], the IC50 on human PRMT1 is 18.4 nM.

Turning to `CN(CCN)Cc1c[nH]nc1-c1ccc(OCCCO)cc1` [Compound 195], the IC50 is 11.4 nM against human PRMT1 and 402 nM against human PRMT8. On human PRMT1, `CNCCN(C)Cc1c[nH]nc1-c1ccc(OC2CCOCC2)cc1` [Compound 175] gave an IC50 of 10.5 nM. As for `COc1ccc(-c2n[nH]cc2CN(C)CCN)c(C(F)(F)F)c1` [Compound 154], the IC50 on human PRMT1 stood at 660 nM; on human PRMT8, 6170 nM.

Turning to `CNCCN(C)Cc1cnn(C)c1-c1ccc(Oc2ccccc2)cc1` [Compound 208], the IC50 at human PRMT1 stood at 4.16 nM; against human PRMT8, 279 nM.

`COCCCOc1ccc(-c2n[nH]cc2CN(C)CCN)cc1` [Compound 179]: at human PRMT1, half-maximal inhibition (IC50) required 17.3 nM. With `CNCCN(C)Cc1cn(C)nc1-c1ccc(Oc2ccccc2)cc1` [Compound 207], the IC50 against human PRMT1 worked out at 6.16 nM; at human PRMT8, 627 nM. `CN(CCN)Cc1c[nH]nc1-c1ccc(Oc2ccccc2)c(C(=O)N(C)C)c1` [Compound 226]: the IC50 on human PRMT1 was found to be 26.8 nM; at human PRMT8 it was 7250 nM. On human PRMT1, `CNCCN(C)Cc1cn(C2CCOC2)nc1-c1ccc(OC(C)C)cc1` (stereo not drawn) [Compound 215] yielded an IC50 of 82.2 nM. In turn, `CNCCN(C)Cc1cn(C(C)C)nc1-c1ccc(F)cc1` [Compound 15] displayed an IC50 at human PRMT1 of 4380 nM. On the same count and under the same terms, for `CN(CCN)Cc1c[nH]nc1-c1cc(C#N)ccc1Cl` [Compound 147] the value was 2860 nM.
